{"source": "paper PMC4473678", "about": "“Swedish mutant APP-based BACE1 binding site peptide reduces APP β-cleavage and cerebral Aβ levels in Alzheimer’s mice” (Scientific Reports, 2015)", "key": {"[1]": {"system": "CHO/APPwt cells", "experiment": "APP processing in CHO/APPwt cells (WB, ELISA)", "type": "cell-based, Chinese hamster", "settings": "0 to 20 μM, 24 h", "experimental": "Chinese hamster ovary (CHO) cells engineered to express human APPwt (CHO/APPwt cells) or human APPswe (CHO/APPswe cells) were kindly provided by Dr. Stefanie Hahn and Dr. Sascha Weggen (University of Heinrich Heine, Dusseldorf, Germany). As described in our recent report, these cells were cultured in Dulbecco’s modified Eagle’s medium with 10% fetal bovine serum, 1 mM sodium pyruvate and 100 U/mL of penicillin/streptomycin.\n(§1) Following application of blocking buffer, these cells were stained with mouse anti-BACE1 and anti-biotin antibodies overnight at 4 °C for immunocytochemical analysis. In order to determine the inhibitory effects of TAT-APPsweBBP on BACE1-mediated APP β-cleavage and subsequent Aβ production, both CHO/APPwt and CHO/APPswe cells were plated in 24 well-plates (3×10^5/well) and treated with TAT-APPsweBBP at 0 to 20 μM for 24 h. The cultured media were collected for Aβ and sAPPα analysis by ELISA and WB. Cell lysates were also prepared for analysis of APP amyloidogenic processing by WB.\nWB analysis was performed as previously described. Briefly, the proteins from the various cell-free suspensions, cell lysates and brain homogenates were electrophoretically separated using 10% bicine/tris gel (8 M urea) for proteins less than 5 kD or 10% tricine/tris gels for larger proteins. Electrophoresed proteins were transferred to polyvinylidene difluoride membranes (Bio-Rad, Richmond, CA), washed and blocked for 2 h at room temperature in Tris-buffered saline containing 5% (w/v) nonfat dry milk (TBS/NFDM). After blocking, membranes were hybridized for 2 h with various primary antibodies, washed and incubated for 1 h with the appropriate HRP-conjugated secondary antibody in TBS/NFDM. Blots were developed using the luminol reagent (Thermo Fisher Scientific, Waltham, MA).\n(§2) Mouse brains were homogenized in ice-cold lysis buffer for 30 s using a Minilys tissue homogenizer (Bertin Technologies, Montigny-le-Bretonneux, France) set at high speed, allowed to stand for 15 min at 4 °C, and centrifuged at 15000 rpm for 30 min. Soluble Aβ1−40/42 species and sAPPα were directly detected in cultured cell media or brain homogenates using the Aβ1−40/42 (Invitrogen) and sAPPα ELISA kits (IBL-America, Minneapolis, MN). Detergent-insoluble total […] species were detected in brain by extracting pellets in 5 M guanidine HCl buffer, followed by a 1:20 dilution in lysis buffer."}, "[2]": {"system": "BACE1 in CHO/APPwt cells", "experiment": "Co-localization with BACE1 in CHO/APPwt cells (immunocytochemistry)", "type": "cell-based, Chinese hamster", "settings": "biotin-labeled peptide 20 μM, 30 min, anti-BACE1 and anti-biotin staining", "experimental": "as §1"}, "[3]": {"system": "5XFAD mice", "experiment": "Radial arm water maze (RAWM), 5XFAD mice", "type": "in vivo, mouse", "settings": "100 nmol/kg i.p. daily, 8 weeks, n = 10 per treatment, 5 female/5 male, listed as TAT-APPsweBBP", "experimental": "(§3) Transgenic AD mice [5XFAD; B6SJL-Tg(APPSwFlLon,PSEN1*M146L*L286V) 6799Vas/Mmjax] at 2.5 months of age were obtained from the Jackson Laboratory (Bar Harbor, ME) and housed and maintained in the Animal Facility of College of Medicine at University of South Florida (USF). The mice at 3.5 months of age were treated with TAT-APPsweBBP, TAT peptide (100 nmol/kg in 100 μL PBS) or PBS (100 μL) daily by intraperitioneal injection (i.p.) for eight consecutive weeks. The mice were subjected to behavioral testing after 8-week treatment and then euthanized for immunohistochemical, WB and ELISA analyses. Animals were housed and maintained at USF and all experiments were in compliance with protocols approved by USF Institutional Animal Care and Use Committee. All methods were performed in accordance with relevant guidelines and regulations.\nSpatial learning and memory performance was tested for each mouse using the Two-day Radial Arm Water Maze (RAWM) test[49]. The RAWM was carried out in a 100-cm circular pool with six swim alleys radiating from a common circular swim area. An escape platform was placed near the end of one arm, which forces mice to use working memory to perform this task. On day 1, mice are trained for 15 trials (5 blocks, 3 trials per block), with trials alternating between visible and hidden platform. […] Cognitive ability was assessed as the number of entry-arm errors."}, "[4]": {"system": "WT mice", "experiment": "Rotarod test, WT mice", "type": "in vivo, mouse", "settings": "100 nmol/kg i.p. daily, 8 weeks, n = 10 per treatment"}, "[5]": {"system": "5XFAD mice", "experiment": "Cerebral Aβ ELISA, 5XFAD mice", "type": "in vivo, mouse", "settings": "100 nmol/kg i.p. daily, 8 weeks, versus TAT or PBS, *P < 0.05, **P < 0.01, ***P < 0.005, listed as TAT-APPsweBBP", "experimental": "as §3, with “All methods were performed in accordance with relevant guidelines and regulations.” left out\nas §2"}, "[6]": {"system": "brain of 5XFAD mice", "experiment": "BBB penetration after i.p. administration (brain section confocal imaging)", "procedure": "5XFAD mice at 2 months of age (n = 5, female) were treated intraperitoneally with biotin-labeled TAT-APPsweBBP or APPsweBBP (100 nmol/kg) daily for 5 days and then euthanized 4 h after the last injection. Brain tissues were removed, sectioned and stained with anti-BACE1 and anti-biotin antibodies.\nFixed cell cultures and brain sections were stained with indicated antibodies and then treated with donkey anti-mouse IgG conjugated with Alexa Fluor 488 (1:200) or goat anti-rabbit IgG conjugated with Alexa Fluor 594 (1:200; Invitrogen, Carlsbad, CA). The slides were then washed, mounted with DAPI medium (Vector Laboratories, Burlingame, CA) and visualized with an Olympus FV1000 confocal microscope (Tokyo, Japan)."}, "[7]": {"system": "recombinant BACE1 protein", "experiment": "WB of BACE1-mediated cleavage of biotin-labeled peptide, cell-free", "type": "biochemical", "settings": "10 μg biotin-labeled TAT-APPsweBBP with 10 μL recombinant BACE1 (1.0 U/mL), 4 h, 37 °C", "experimental": "In order to confirm that APPsweBBP containing the β-cleavage site could bind to and be consequently proteolyzed by BACE1, 10 μg of biotin-labeled TAT-APPsweBBP was incubated with or without 10 μL of recombinant BACE1 protein (1.0 U/mL) in BACE1 reaction buffer for 4 h at 37 °C and then subjected to WB analysis as described previously. In addition, we performed immunoprecipitation (IP) and WB analyses of this mixture with anti-BACE1 and anti-biotin antibodies to confirm that TAT-APPsweBBP, but not TAT, specifically binds to BACE1."}, "[8]": {"system": "BACE1 in CHO/APPwt cells", "experiment": "IP/WB of BACE1 binding in CHO/APPwt cell lysates", "parameters": "species or system Chinese hamster", "settings": "biotin-labeled peptide 20 μM, 30 min, anti-biotin IP, listed as TAT-APPsweBBP"}, "[9]": {"system": "WT mice", "experiment": "Radial arm water maze (RAWM), WT mice", "type": "in vivo, mouse", "settings": "100 nmol/kg i.p. daily, 8 weeks, n = 10 per treatment, listed as TAT-APPsweBBP"}, "[10]": {"settings": "*P < 0.05, **P < 0.01, three independent experiments, each triplicated"}}, "note": "Entries after “also recorded” stand apart in the source; their conditions may differ.", "data": [{"sequence": "YGRKKRRQRRREISEVNLDAEFR [APPsweBBP conjugated with the membrane fusion fragment of HIV-1 Tat protein]", "values": [{"measurement": "holo APP expression by WB", "setting": "[1]", "value": "leaving holo APP expression unaltered"}, {"measurement": "sAPPα by WB", "setting": "[1]", "value": "promoting"}, {"measurement": "Aβ1−40/42 by ELISA", "setting": "[1]; [10]", "value": "significantly decreased"}, {"measurement": "sAPPα by ELISA", "setting": "[1]; [10]", "value": "increased sAPPα levels in a dose-dependent manner"}, {"measurement": "Aβ by WB", "setting": "[1]; listed as TAT-APPsweBBP", "value": "markedly decreased Aβs; also recorded: markedly inhibited"}, {"measurement": "α-CTF by WB", "setting": "[1]; listed as TAT-APPsweBBP", "value": "increased α-CTF; also recorded: promoting α-CTF"}, {"measurement": "co-localization with BACE1", "setting": "[2]; listed as TAT-APPsweBBP", "value": "much more strongly co-localized with BACE1 protein compared to APPsweBBP"}, {"measurement": "co-localization with BACE1", "setting": "[2]; listed as TAT-APPsweBPP", "value": "strong association with BACE1 in both cytoplasmic membrane and intracellular compartments"}, {"measurement": "RAWM entry-arm errors (learning and memory)", "setting": "[3]", "value": "significantly fewer errors, compared to TAT- and PBS-treated mice; also recorded: enhanced cognitive ability, as evidenced by fewer errors"}, {"measurement": "rotarod latency to fall", "setting": "[4]", "value": "no differences between treatment groups on each day"}, {"measurement": "detergent-insoluble Aβ1−40/42 in brain", "setting": "[5]", "value": "statistically significant decreases; also recorded: significantly reduced"}, {"measurement": "detergent-soluble Aβ1−40/42 in brain", "setting": "[5]", "value": "statistically significant decreases; also recorded: significantly reduced"}, {"measurement": "association with BACE1 in brain", "setting": "[6]; 5XFAD mice, 2 months, n = 5, female, biotin-labeled peptide 100 nmol/kg i.p. daily 5 days, 4 h after last injection", "value": "more highly associates with BACE1 compared to APPsweBBP"}, {"measurement": "BBB penetration / brain distribution", "setting": "[6]; 5XFAD mice, 2 months, n = 5, female, biotin-labeled peptide 100 nmol/kg i.p. daily 5 days, 4 h after last injection, confocal images, listed as TAT-APPsweBBP", "value": "highly penetrated the BBB and was detectable in both the cortical and hippocampal regions; also recorded: more permeable across the BBB; also recorded: greater distribution of TAT-APPsweBBP than APPsweBBP into cortical and hippocampal regions"}, {"measurement": "BBB penetration (Fig. S4 legend)", "setting": "[6]; peripheral injection, Fig. S4", "value": "freely enters brain microvascular endothelial cells"}, {"measurement": "cleavage by BACE1", "setting": "[7]", "value": "is cleaved by BACE1; also recorded: can also be cleaved"}, {"measurement": "binding to BACE1 in cell lysates", "setting": "[8]", "value": "strongly and specifically binds to BACE1; also recorded: markedly bound to BACE1 compared to APPsweBBP"}, {"measurement": "RAWM entry-arm errors", "setting": "[9]", "value": "no difference among the various treatment groups; also recorded: no significant difference between WT treatment groups"}]}]}
